# Patent publication US10711000B2 (Fronthera U.S. Pharmaceuticals LLC, priority 2018, dated 2020)
# Where two headings read alike, the source gives them in different places.
# Molecular target: T1, Autotaxin (Homo sapiens, UniProt Q13822)
# T1 construct: from tissue; host or cells: pooled human plasma
# Assay: LPA formation in pooled human plasma (ex vivo autotaxin inhibition)
# Type: biochemical
# Details: 2 hours incubation
# Protocol: Autotaxin is a plasma phosphodiesterase that converts lysophosphatidylcholine (LPC) into lysophosphatidic acid (LPA), therefore LPA formation was used to evaluate the potency of autotaxin inhibitors. The potency of compound was evaluated ex vivo in pooled human plasma.
# Various concentrations of compound were incubated with plasma for 2 hours, and the LPA 18:2 and 20:4 concentration was measured by LC/MS/MS. To determine the LPA18:2 or 20:4 concentration in study plasma, a 10× calibration standard of LPA 18:2 or 20:4 were prepared by serial dilution in butyl alcohol: 20000, 10000, 5000, 2000, 1000, 500, 200, 100, 50, 20, and 10 ng/mL. 3 μL of calibration standard solution was added into 27.0 μL of blank plasma in 1.5-mL microcentrifuge tubes to generate 1× calibration standards. The 30.0 μL of standards or study plasma was added into 1.5-mL microcentrifuge tubes. 200 μL of butyl alcohol (containing 25.0 ng/mL LPA17:0 for internal control) was added into each 1.5-mL microcentrifuge tube containing study plasma or calibration standards. After vortexing for 1 minute and centrifuging at 10000 rpm for 10 min, 180 μL of supernatant was transferred into a 96-well plate and the LPA18:2 concentration in the plasma was quantitated using LC/MS/MS together with standards. Briefly, 8 μL of the solutions were injected for LC-MS/MS analysis using an ACQUITY UPLC BEH C18 column (2.1×50 mm, 1.7 μm) with mobile phase A [20 mM NH4OAC in water (0.1% FA)] and phase B [5 mM NH4OAC in water/0.2% FA in ACN=5:95]. Mass spectrometer parameters optimization for LPA18:2 were performed by Deprotonated molecular ion at m/z 433.2 ([M−H]^−) for LPA18:2, 457.2 for LPA20:4 and abundant product ion at m/z 152.8 for both LPA18:2 and LPA20:4 were obtained. Quantitative data were acquired in multiple reaction monitoring (MRM) negative electrospray ionization mode
# The inhibition rate of LPA formation was determined by comparing the levels of LPA in treated and non-treated plasma. The data was plotted against the corresponding concentration of compound and the IC50 was calculated through non-linear regression fitting.
# [1] = LPA 18:2 by LC/MS/MS, read-out: LPA formation (18:2) (IC50)
# [2] = LPA 20:4 by LC/MS/MS, read-out: LPA formation (20:4) (IC50)
IC50 [1] [nM],IC50 [2] [nM],SMILES
100 to 500,100 to 500,"CCc1nn2ccc(N3CC4(CN(C(=O)[C@@H]5CCOC5)C4)C3)cc2c1N(C)c1nc(-c2ccc(F)cc2)c(C#N)s1 [Example 9, (R)-2-((2-ethyl-5-(6-(tetrahydrofuran-3-carbonyl)-2,6-diazaspiro[3.3]heptan-2-yl)pyrazolo[1,5-a]pyridin-3-yl)(methyl)amino)-4-(4-fluorophenyl)thiazole-5-carbonitrile]"
≤ 100,≤ 100,"CCc1nn2ccc(N3CC4(CN(C(=O)[C@H]5CCOC5)C4)C3)cc2c1N(C)c1nc(-c2ccc(F)cc2)c(C#N)s1 [Example 10, (S)-2-((2-ethyl-5-(6-(tetrahydrofuran-3-carbonyl)-2,6-diazaspiro[3.3]heptan-2-yl)pyrazolo[1,5-a]pyridin-3-yl)(methyl)amino)-4-(4-fluorophenyl)thiazole-5-carbonitrile]"
≤ 100,≤ 100,"CCc1nn2ccc(N3CC4(CN(C(=O)N5CC(O)C5)C4)C3)cc2c1N(C)c1nc(-c2ccc(F)cc2)c(C#N)s1 [Example 11, 2-((2-ethyl-5-(6-(3-hydroxyazetidine-1-carbonyl)-2,6-diazaspiro[3.3]heptan-2-yl)pyrazolo[1,5-a]pyridin-3-yl)(methyl)amino)-4-(4-fluorophenyl)thiazole-5-carbonitrile]"
≤ 100,≤ 100,"CCc1nn2ccc(N3CCC4(CC3)CN(C(=O)N3CC(O)C3)C4)cc2c1N(C)c1nc(-c2ccc(F)cc2)c(C#N)s1 [Example 12, 2-((2-ethyl-5-(2-(3-hydroxyazetidine-1-carbonyl)-2,7-diazaspiro[3.5]nonan-7-yl)pyrazolo[1,5-a]pyridin-3-yl)(methyl)amino)-4-(4-fluorophenyl)thiazole-5-carbonitrile]"
≤ 100,≤ 100,"CCc1nn2ccc(N3CC4(CN(C(=O)N5CCN(C)CC5)C4)C3)cc2c1N(C)c1nc(-c2ccc(F)cc2)c(C#N)s1 [Example 14, 2-((2-ethyl-5-(6-(4-methylpiperazine-1-carbonyl)-2,6-diazaspiro[3.3]heptan-2-yl)pyrazolo[1,5-a]pyridin-3-yl)(methyl)amino)-4-(4-fluorophenyl)thiazole-5-carbonitrile]"
≤ 100,≤ 100,"CCc1nn2ccc(N3CC4(CCN(C(=O)N5CC(O)C5)C4)C3)cc2c1N(C)c1nc(-c2ccc(F)cc2)c(C#N)s1 [Example 15, 2-((2-ethyl-5-(6-(3-hydroxyazetidine-1-carbonyl)-2,6-diazaspiro[3.4]octan-2-yl)pyrazolo[1,5-a]pyridin-3-yl)(methyl)amino)-4-(4-fluorophenyl)thiazole-5-carbonitrile]"
≤ 100,≤ 100,"CCc1nn2ccc(N3CCC4(CN(C(=O)N5CC(O)C5)C4)C3)cc2c1N(C)c1nc(-c2ccc(F)cc2)c(C#N)s1 [Example 16, 2-((2-ethyl-5-(2-(3-hydroxyazetidine-1-carbonyl)-2,6-diazaspiro[3.4]octan-6-yl)pyrazolo[1,5-a]pyridin-3-yl)(methyl)amino)-4-(4-fluorophenyl)thiazole-5-carbonitrile]"
≤ 100,≤ 100,"CCc1nn2ccc(N3CCC4(CCN(C(=O)N5CC(O)C5)CC4)C3)cc2c1N(C)c1nc(-c2ccc(F)cc2)c(C#N)s1 [Example 17, 2-((2-ethyl-5-(8-(3-hydroxyazetidine-1-carbonyl)-2,8-diazaspiro[4.5]decan-2-yl)pyrazolo[1,5-a]pyridin-3-yl)(methyl)amino)-4-(4-fluorophenyl)thiazole-5-carbonitrile]"
≤ 100,≤ 100,"CCc1nn2ccc(N3CCC4(CCN(C(=O)N5CC(O)C5)C4)CC3)cc2c1N(C)c1nc(-c2ccc(F)cc2)c(C#N)s1 [Example 18, 2-((2-ethyl-5-(2-(3-hydroxyazetidine-1-carbonyl)-2,8-diazaspiro[4.5]decan-8-yl)pyrazolo[1,5-a]pyridin-3-yl)(methyl)amino)-4-(4-fluorophenyl)thiazole-5-carbonitrile]"
≤ 100,≤ 100,"[2H]c1cc(N2CCN(CC(=O)N3CC(O)C3)CC2)cc2c(N(C)c3nc(-c4ccc(F)cc4)c(C#N)s3)c(CC)nn12 [Example 19, 2-((2-ethyl-5-(4-(2-(3-hydroxyazetidin-1-yl)-2-oxoethyl)piperazin-1-yl)pyrazolo[1,5-a]pyridin-3-yl-7-d)(methyl)amino)-4-(4-fluorophenyl)thiazole-5-carbonitrile]"
≤ 100,≤ 100,"CCc1nn2ccc(N3CCC4(CCN(C(=O)N5CC(O)C5)C4)C3)cc2c1N(C)c1nc(-c2ccc(F)cc2)c(C#N)s1 (centres unmarked) [Example 20, 2-((2-ethyl-5-(7-(3-hydroxyazetidine-1-carbonyl)-2,7-diazaspiro[4.4]nonan-2-yl)pyrazolo[1,5-a]pyridin-3-yl)(methyl)amino)-4-(4-fluorophenyl)thiazole-5-carbonitrile]"
≤ 100,≤ 100,"CN(c1nc(-c2ccc(F)cc2)c(C#N)s1)c1c(C2CC2)nn2ccc(N3CCN(CC(=O)N4CC(O)C4)CC3)cc12 [Example 21, 2-((2-cyclopropyl-5-(4-(2-(3-hydroxyazetidin-1-yl)-2-oxoethyl)piperazin-1-yl)pyrazolo[1,5-a]pyridin-3-yl)(methyl)amino)-4-(4-fluorophenyl)thiazole-5-carbonitrile]"
≤ 100,≤ 100,"CN(c1nc(-c2ccc(F)cc2)c(C#N)s1)c1c(C2CC2)nn2ccc(N3CC4(CN(C(=O)[C@H]5CCOC5)C4)C3)cc12 [Example 22, (S)-2-((2-cyclopropyl-5-(6-(tetrahydrofuran-3-carbonyl)-2,6-diazaspiro[3.3]heptan-2-yl)pyrazolo[1,5-a]pyridin-3-yl)(methyl)amino)-4-(4-fluorophenyl)thiazole-5-carbonitrile]"
100 to 500,100 to 500,"CCc1nn2c(C)cc(N3CCN(CC(=O)N4CC(O)C4)CC3)cc2c1N(C)c1nc(-c2ccc(F)cc2)c(C#N)s1 [Example 23, 2-((2-ethyl-5-(4-(2-(3-hydroxyazetidin-1-yl)-2-oxoethyl)piperazin-1-yl)-7-methylpyrazolo[1,5-a]pyridin-3-yl)(methyl)amino)-4-(4-fluorophenyl)thiazole-5-carbonitrile]"
100 to 500,≤ 100,"CCc1nn2c(C)cc(N3CCN(CC(=O)N(C)C)CC3)cc2c1N(C)c1nc(-c2ccc(F)cc2)c(C#N)s1 [Example 24, 2-(4-(3-((5-cyano-4-(4-fluorophenyl)thiazol-2-yl)(methyl)amino)-2-ethyl-7-methylpyrazolo[1,5-a]pyridin-5-yl)piperazin-1-yl)-N,N-dimethylacetamide]"
≤ 100,≤ 100,"CCc1nn2c(C)cc(N3CCN(CC(=O)N4CC[C@@H](O)C4)CC3)cc2c1N(C)c1nc(-c2ccc(F)cc2)c(C#N)s1 [Example 25, (R)-2-((2-ethyl-5-(4-(2-(3-hydroxypyrrolidin-1-yl)-2-oxoethyl)piperazin-1-yl)-7-methylpyrazolo[1,5-a]pyridin-3-yl)(methyl)pamino)-4-(4-fluorophenyl)thiazole-5-carbonitrile]"
100 to 500,100 to 500,"CCc1nn2c(C)cc(N3CCN(CC(=O)N4CC[C@H](O)C4)CC3)cc2c1N(C)c1nc(-c2ccc(F)cc2)c(C#N)s1 [Example 26, (S)-2-((2-ethyl-5-(4-(2-(3-hydroxypyrrolidin-1-yl)-2-oxoethyl)piperazin-1-yl)-7-methylpyrazolo[1,5-a]pyridin-3-yl)(methyl)amino)-4-(4-fluorophenyl)thiazole-5-carbonitrile]"
≤ 100,≤ 100,"CCc1nn2c(C)cc(N3CCN(CC(=O)N4CC(CO)C4)CC3)cc2c1N(C)c1nc(-c2ccc(F)cc2)c(C#N)s1 [Example 27, 2-((2-ethyl-5-(4-(2-(3-(hydroxymethyl)azetidin-1-yl)-2-oxoethyl)piperazin-1-yl)-7-methylpyrazolo[1,5-a]pyridin-3-yl)(methyl)amino)-4-(4-fluorophenyl)thiazole-5-carbonitrile]"
≤ 100,≤ 100,"CCc1nn2c(C)cc(N3CC4(CN(C(=O)N5CC(O)C5)C4)C3)cc2c1N(C)c1nc(-c2ccc(F)cc2)c(C#N)s1 [Example 28, 2-((2-ethyl-5-(6-(3-hydroxyazetidine-1-carbonyl)-2,6-diazaspiro[3.3]heptan-2-yl)-7-methylpyrazolo[1,5-a]pyridin-3-yl)(methyl)amino)-4-(4-fluorophenyl)thiazole-5-carbonitrile]"
